Assay results taken from the supplement of paper PMC11061612.

How the values were obtained:
Experiment in all cases: combination Emax (second highest fraction inhibited in the dose matrix, 72 h); higher = more inhibition; extreme values may be limits of the assay
[1] = tested on: 8505C (Thyroid Gland Carcinoma)
Method in brief: (§1)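 Cell lines grown in DMEM/F12 or RPMI with 10% FBS were plated in 1536-well plates and held 24 hours at 37°C, 5% CO2 before 72 hours of exposure to two-drug dose matrices, with DMSO typically at 0.2%. CellTiter-Glo 2.0 luminescence gave viability, which was converted to inhibition. Vehicle wells were set to 0 and blank wells to 1. Combination Emax is the second-highest inhibition in the matrix, and Bliss excess is the observed combination effect minus the expected EA + EB − EA·EB, where EA and EB are the single-agent effects.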

[2] = tested on: DAN-G (Pancreatic Carcinoma)
Method in brief: as §1

[3] = tested on: ESO51 (Esophageal Adenocarcinoma)
Method in brief: as §1

G-361 (Melanoma) = tested on: G-361 (Melanoma)
Method in brief: as §1

[4] = tested on: H9 (T-Cell Non-Hodgkin's Lymphoma)
Method in brief: as §1

[5] = tested on: HCC1187 (Breast Carcinoma)
Method in brief: as §1

[6] = tested on: HCC1419 (Breast Carcinoma)
Method in brief: as §1

[7] = tested on: JHH-4 (Hepatocellular Carcinoma)
Method in brief: as §1

[8] = tested on: KMS-12-BM (Plasma Cell Myeloma)
Method in brief: as §1

[9] = tested on: KP-3 (Pancreatic Carcinoma)
Method in brief: as §1

[10] = tested on: MOLM-13 (Acute Myeloid Leukemia)
Method in brief: as §1

[11] = tested on: NCCIT (Other Solid Carcinomas)
Method in brief: as §1

NCI-H2731 (Mesothelioma) = tested on: NCI-H2731 (Mesothelioma)
Method in brief: as §1

[12] = tested on: NCI-H526 (Small Cell Lung Carcinoma)
Method in brief: as §1

[13] = tested on: PC-3 (Prostate Carcinoma)
Method in brief: as §1

RD (Rhabdomyosarcoma) = tested on: RD (Rhabdomyosarcoma)
Method in brief: as §1

[14] = tested on: RPMI-8226 (Plasma Cell Myeloma)
Method in brief: as §1

[15] = tested on: SNU-398 (Hepatocellular Carcinoma)
Method in brief: as §1

[16] = tested on: SUP-B15 (B-Lymphoblastic Leukemia)
Method in brief: as §1

[17] = tested on: T-T (Esophageal Squamous Cell Carcinoma)
Method in brief: as §1

SMILES | combination Emax [1] | combination Emax [2] | combination Emax [3] | combination Emax (G-361 (Melanoma)) | combination Emax [4] | combination Emax [5] | combination Emax [6] | combination Emax [7] | combination Emax [8] | combination Emax [9] | combination Emax [10] | combination Emax [11] | combination Emax (NCI-H2731 (Mesothelioma)) | combination Emax [12] | combination Emax [13] | combination Emax (RD (Rhabdomyosarcoma)) | combination Emax [14] | combination Emax [15] | combination Emax [16] | combination Emax [17]
COc1nnc2ccc(N3CCC(c4ccc(OCCN5CCN(C)C(=O)[C@H]5C)cc4)CC3)nn12 [AZD5153] + Cn1cnc2c(F)c(Nc3ccc(Br)cc3Cl)c(C(=O)NOCCO)cc21 [Selumetinib] (first compound max 1 µM, 7x7, partner max 10 µM) | 0.593 | 0.527 | 0.901 | 0.766 | 1 | 0.383 | 0.355 | 0.906 | 1 | 0.338 | 1 | 0.786 | 0.39 | 0.941 | 0.299 | 0.77 | 0.913 | 0.556 | 1 | 0.633
CN(C)CCCOc1ccc(-c2ccc3ncc4c(c3c2)n(C2CCOCC2)c(=O)n4C)cn1 [AZD0156] + C[C@@H]1COCCN1C2=NC(=NC(=C2)C3(CC3)[S@](=N)(=O)C)C4=C5C=CNC5=NC=C4 [AZD6738] (first compound max 1 µM, 7x7, partner max 10 µM) | 0.24 | 0.696 | 0.773 | 0.628 | 0.972 | 0.472 | 0.159 | 0.133 | 1 | 0.398 | 0.997 | 0.656 | 0.244 | 0.529 | 0.484 | 0.252 | 0.994 | 0.462 | 0.879 | 0.659
CN(CCO)CC[C@H](CSc1ccccc1)Nc1ccc(S(=O)(=O)NC(=O)c2ccc(N3CCC([C@@H](O)c4ccccc4-c4ccc(Cl)cc4)CC3)cc2)cc1S(=O)(=O)C(F)(F)F [AZD4320] + Cc1cc2ncnn2cc1Nc1ncc2c(n1)n(C1CCOCC1)c(=O)n2C [AZD7648] (first compound max 1 µM, 7x7, partner max 10 µM) | 0.484 | 0.474 | 0.149 | 0.205 | 0.99 | 0.114 | 0.278 | 0.233 | 1 | 0.0376 | 1 | 0.243 | 0.117 | 0.908 | 0.213 | 0.61 | 0.965 | 0.261 | 1 | 0.106
CC1(C)CCC(CN2CCN(c3ccc(C(=O)NS(=O)(=O)c4ccc(NCC5CCOCC5)c([N+](=O)[O-])c4)c(Oc4cnc5[nH]ccc5c4)c3)CC2)=C(c2ccc(Cl)cc2)C1 [Venetoclax] + C[C@@H]1COCCN1C2=NC(=NC(=C2)C3(CC3)[S@](=N)(=O)C)C4=C5C=CNC5=NC=C4 [AZD6738] (first compound max 1 µM, 7x7, partner max 10 µM) | 0.482 | 0.719 | 0.82 | 0.599 | 1 | 0.501 | 0.343 | 0.254 | 1 | 0.323 | 1 | 0.607 | 0.307 | 0.889 | 0.517 | 0.372 | 0.962 | 0.673 | 1 | 0.485
Cc1c2c(nn1C)CSCc1cc(n(C)n1)CSc1cc(c3ccccc3c1)OCCCc1c(C(=O)O)n(C)c3c-2c(Cl)ccc13 [AZD5991] + Cc1cc2ncnn2cc1Nc1ncc2c(n1)n(C1CCOCC1)c(=O)n2C [AZD7648] (first compound max 1 µM, 7x7, partner max 10 µM) | 0.193 | 0.483 | 0.127 | 0.956 | 0.722 | 1 | 0.501 | 0.262 | 1 | 0.168 | 1 | 0.619 | 0.576 | 0.323 | 0.305 | 0.521 | 0.957 | 1 | 1 | 0.926
CC1(C)CCC(CN2CCN(c3ccc(C(=O)NS(=O)(=O)c4ccc(NCC5CCOCC5)c([N+](=O)[O-])c4)c(Oc4cnc5[nH]ccc5c4)c3)CC2)=C(c2ccc(Cl)cc2)C1 [Venetoclax] + CCN(CCO)CCCOc1ccc2c(Nc3cc(CC(=O)Nc4cccc(F)c4)[nH]n3)ncnc2c1 [AZD2811] (first compound max 1 µM, 7x7, partner max 1 µM) | 0.211 | 0.21 | 0.117 | 0.285 | 0.888 | 0.886 | 0.212 | 0.205 | 1 | 0.148 | 1 | 0.282 | 0.211 | 0.928 | 0.245 | 0.172 | 0.481 | 0.515 | 1 | 0.181
CN(CCO)CC[C@H](CSc1ccccc1)Nc1ccc(S(=O)(=O)NC(=O)c2ccc(N3CCC([C@@H](O)c4ccccc4-c4ccc(Cl)cc4)CC3)cc2)cc1S(=O)(=O)C(F)(F)F [AZD4320] + C[C@@H](Nc1cc(F)cc(F)c1)c1cc(C(=O)N(C)C)cc2c(=O)cc(N3CCOCC3)oc12 [AZD8186] (first compound max 1 µM, 7x7, partner max 3 µM) | 0.502 | 0.344 | 0.336 | 0.332 | 0.958 | 0.35 | 0.342 | 0.34 | 1 | 0.178 | 1 | 0.329 | 0.552 | 0.973 | 0.437 | 0.887 | 0.968 | 0.273 | 1 | 0.305
COc1nnc2ccc(N3CCC(c4ccc(OCCN5CCN(C)C(=O)[C@H]5C)cc4)CC3)nn12 [AZD5153] + C=CCn1c(=O)c2cnc(Nc3ccc(N4CCN(C)CC4)cc3)nc2n1-c1cccc(C(C)(C)O)n1 [AZD1775] (first compound max 1 µM, partner max 1 µM) | 0.574 | 0.681 | 0.723 | 0.734 | 1 | 0.792 | 0.346 | 0.56 | 1 | 0.4 | 1 | 0.939 | 0.535 | 0.947 | 0.447 | 0.774 | 0.845 | 0.818 | 0.962 | 0.615
Cc1cc2ncnn2cc1Nc1ncc2c(n1)n(C1CCOCC1)c(=O)n2C [AZD7648] + CN(C)CCCOc1ccc(-c2ccc3ncc4c(c3c2)n(C2CCOCC2)c(=O)n4C)cn1 [AZD0156] (first compound max 10 µM, 7x7, partner max 1 µM) | 0.189 | 0.597 | 0.192 | 0.217 | 0.331 | 0.104 | 0.358 | 0.247 | 0.49 | 0.159 | 0.523 | 0.282 | 0.274 | 0.15 | 0.257 | 0.195 | 0.248 | 0.194 | 0.174 | 0.246
C=CCn1c(=O)c2cnc(Nc3ccc(N4CCN(C)CC4)cc3)nc2n1-c1cccc(C(C)(C)O)n1 [AZD1775] + O=C(c1cc(Cc2n[nH]c(=O)c3ccccc23)ccc1F)N1CCN(C(=O)C2CC2)CC1 [Olaparib] (first compound max 1 µM, partner max 10 µM) | 0.319 | 0.646 | 0.455 | 0.564 | 0.868 | 0.423 | 0.118 | 0.307 | 0.905 | 0.28 | 0.991 | 0.759 | 0.349 | 0.758 | 0.207 | 0.461 | 0.502 | 0.5 | 0.973 | 0.455
CCN(CCO)CCCOc1ccc2c(Nc3cc(CC(=O)Nc4cccc(F)c4)[nH]n3)ncnc2c1 [AZD2811] + C=CCn1c(=O)c2cnc(Nc3ccc(N4CCN(C)CC4)cc3)nc2n1-c1cccc(C(C)(C)O)n1 [AZD1775] (first compound max 1 µM, partner max 1 µM) | 0.188 | 0.623 | 0.627 | 0.477 | 0.985 | 0.839 | 0.0861 | 0.355 | 0.944 | 0.209 | 1 | 0.781 | 0.382 | 0.566 | 0.237 | 0.347 | 0.562 | 0.417 | 0.966 | 0.303
COc1cccc(OCCCN)c1-c1cc(Nc2cnc(C#N)cn2)n[nH]1 [Prexasertib] + C[C@@H]1COCCN1C2=NC(=NC(=C2)C3(CC3)[S@](=N)(=O)C)C4=C5C=CNC5=NC=C4 [AZD6738] (first compound max 1 µM, 7x7, partner max 10 µM) | 0.551 | 0.769 | 0.779 | 0.655 | 1 | 0.614 | 0.449 | 0.501 | 1 | 0.456 | 1 | 0.797 | 0.395 | 0.92 | 0.431 | 0.539 | 1 | 0.437 | 0.962 | 0.742
Cn1cnc2c(F)c(Nc3ccc(Br)cc3Cl)c(C(=O)NOCCO)cc21 [Selumetinib] + CC(C)n1c(=O)n(C)c2cnc3cc(F)c(-c4ccc(OCCCN5CCCCC5)nc4)cc3c21 [AZD1390] (first compound max 10 µM, 7x7, partner max 0.3 µM) | 0.584 | 0.15 | 0.434 | 0.674 | 0.978 | 0.179 | 0.152 | 0.605 | 0.295 | 0.15 | 0.767 | 0.0608 | 0.0731 | 0.0826 | 0.0591 | 0.24 | 0.26 | 0.278 | 0.328 | 0.264
